# Data reported in patent publication US20070134261A1, “Effectors of innate immunity” (priority 2001, published 2007).
# Where two headings read alike, the source gives them in different places. Residues, ends and D or L forms follow the SMILES beside them. No end group written: not given here.
# What was measured:
# [1] = assay type: cell-based
# [2] = tested on: A549 human epithelial cells; test: Induction of chemokines (IL-8, MCP-1) in A549 cells (ELISA); assay type: cell-based; conditions: peptide 10 ug/ml, 24 hr
# Description: The murine macrophage cell line RAW 264.7, THP-1 cells (human monocytes), a human epithelial cell line (A549), human bronchial epithelial cells (16HBEo14), and whole human blood were used. HBE cells were grown in MEM with Earle's. THP-1 cells were grown and maintained in RPMI 1640 medium. The RAW and A549 cell lines were maintained in DMEM supplemented with 10% fetal calf serum. […] DMEM was aspirated from cells grown overnight and replaced with fresh medium. After incubation of the cells with peptide, the release of chemokines into the culture supernatant was determined by ELISA (R&D Systems, Minneapolis, Minn.).
# [3] = tested on: human bronchial epithelial cells (HBE); test: LDH release assay (Cytotoxicity Detection Kit); assay type: cell-based; conditions: 100 μg/ml, 24 hours; no peptide control 1.0 ± 0.05
# Description: (§1) The potential toxicity of the peptides was measured in two ways. First, the Cytotoxicity Detection Kit (Roche) (Lactate dehydrogenase-LDH) Assay was used. It is a colorimetric assay for the quantification of cell death and cell lysis, based on the measurement of LDH activity released from the cytosol of damaged cells into the supernatant. LDH is a stable cytoplasmic enzyme present in all cells and it is released into the cell culture supernatant upon damage of the plasma membrane. An increase in the amount of dead or plasma membrane-damaged cells results in an increase of the LDH enzyme activity in the culture supernatant as measured with an ELISA plate reader, OD490 nm (the amount of color formed in the assay is proportional to the number of lysed cells). In this assay, human bronchial epithelial cells (I6HBEo14, HBE) cells were incubated with 100 μg of peptide for 24 hours, the supernatant removed and tested for LDH. The other assay used to measure toxicity of the cationic peptides was the WST-1 assay (Roche). This assay is a colorimetric assay for the quantification of cell proliferation and cell viability, based on the cleavage of the tetrazolium salt WST-1 by mitochondrial dehydrogenases in viable cells (a non-radioactive alternative to the [^3H]-thymidine incorporation assay). In this assay, HBE cells were incubated with 100 μg of peptide for 24 hours, and then 10 μl/well Cell Proliferation Reagent WST-1 was added. The cells are incubated with the reagent and the plate is then measured with an ELISA plate reader, OD490 nm.
# [4] = tested on: RAW 264.7 mouse macrophage cells; assay type: cell-based; conditions: Peptide 20 μg/ml; 100 ng/ml E. coli 0111:B4 LPS, 6 h
# HBE cells = test: WST-1 assay (cell viability); assay type: cell-based, human
# Description: as §1
# BALB/c mice = test: Lethal endotoxemia in galactosamine-sensitized BALB/c mice; assay type: in vivo; conditions: 2 μg LPS; peptide 200 μg/mouse = 8 mg/kg IP 15 min after LPS; 48 hours; no peptide 10
# human PBMC = test: TLR agonist / cytokine induced cytokine secretion by PBMC (ELISA, multiplex bead immunoassay); assay type: cell-based; conditions: PAM3 −SEQ ID NO: 1
# Description: All assays were performed in triplicate.
# [5] = Staphylococcus aureus, overnight, 96-well plate
# [6] = Escherichia coli, overnight, 96-well plate
# [7] = Citobacter rhodensis, overnight, 96-well plate
# [8] = Enterohaemorrhagic E. coli, overnight, 96-well plate
# [9] = Pseudomonas aeruginosa, overnight, 96-well plate
# [10] = Salmonella enteritidis ssp. typhimurium, overnight, 96-well plate
Compound,"MIC, S. aureus [1, 5]",IL-8 [2],Inhibition of TNF-α [4],"MIC, C. rhod. ([1]; 24 h)","MIC, E. coli ([1]; 24 h)","MIC, EHEC ([1]; 24 h)","MIC, S. typhim. ([1]; 24 h)","MIC, E. coli [1, 6]",also measured
CC[C@H](C)[C@H](NC(=O)[C@@H](NC(=O)[C@H](CCCNC(=N)N)NC(=O)[C@@H](NC(=O)[C@@H]1CCCN1C(=O)[C@H](CO)NC(=O)[C@H](CCCCN)NC(=O)[C@H](Cc1ccccc1)NC(=O)[C@@H](NC(=O)[C@H](CCCNC(=N)N)NC(=O)[C@H](CC(C)C)NC(=O)[C@H](Cc1ccccc1)NC(=O)[C@H](CO)NC(=O)[C@H](CCCCN)NC(=O)[C@H](Cc1c[nH]c2ccccc12)NC(=O)[C@@H](N)CCCCN)[C@@H](C)O)C(C)C)[C@@H](C)O)C(=O)N[C@@H](Cc1ccccc1)C(=O)N[C@@H](Cc1c[nH]cn1)C(=O)N[C@H](C(=O)N[C@@H](C)C(=O)N[C@@H](CC(C)C)C(=O)N[C@@H](CCCCN)C(=O)N1CCC[C@H]1C(=O)N[C@H](C(=O)N[C@@H](CO)C(=O)N[C@@H](CO)C(=O)O)[C@@H](C)CC)[C@@H](C)O [SEQ ID NO: 47],>,0.383 ng/mL,36.9 ± 2.2%,,,,,,LDH Release (OD490 nm) [3]: 1.05 ± 0.05 OD490 nm; OD490 nm (WST-1 cell viability) (HBE cells): 1.14 ± 0.23 OD490 nm
KWKRGAHRFMKFLSTIFHTALKPISS [SEQ ID NO: 49],>,0.301 ng/mL,86.9 ± 0.69%,4 µg/mL,4 µg/mL,4 µg/mL,8 µg/mL,,"MIC, P. aerug. ([1]; 24 h): 16 µg/mL"
SLPIKHDRLPATS [SEQ ID NO: 15],>,,69.4 ± 0.84%,128 µg/mL,128 µg/mL,64 µg/mL,,,Survival (BALB/c mice): 0%
"KKSPIAPAIPWSR (Cationic peptide) [SEQ ID NO: 8, Formula A cationic peptide]",>,,39.3 ± 1.9%,,,,,>,
KWKSYAHTIMSPVRLVFHTALKPISS [SEQ ID NO: 54],>,0.133 ng/mL,64 ± 0.73%,,,,,64 µg/mL,"MIC, C. rhod. [1, 7]: 16 µg/mL; MIC, EHEC [1, 8]: 32 µg/mL; MIC, P. aerug. [1, 9]: 16 µg/mL; MIC, S. typhim. [1, 10]: 64 µg/mL"
CC[C@H](C)[C@H](NC(=O)CNC(=O)[C@H](CCCNC(=N)N)NC(=O)[C@H](CCSC)NC(=O)[C@H](C)NC(=O)[C@@H](NC(=O)[C@H](CCCNC(=N)N)NC(=O)[C@H](CCCCN)NC(=O)[C@@H](NC(=O)[C@H](CS)NC(=O)[C@@H](NC(=O)[C@@H](N)CCCNC(=N)N)[C@@H](C)O)C(C)C)C(C)C)C(=O)N[C@H](C(=O)N[C@@H](CCCNC(=N)N)C(=O)N[C@@H](CCCCN)C(=O)N[C@@H](CCCNC(=N)N)C(=O)N[C@@H](CS)C(=O)N[C@@H](CCCNC(=N)N)C(=O)O)[C@@H](C)CC [SEQ ID NO: 33] (H-RTCVKRVAMRGIIRKRCR-OH; N-terminus and C-terminus assumed),,0.328 ng/mL,62.1 ± 0.08%,64 µg/mL,16 µg/mL,8 µg/mL,16 µg/mL,,"MIC, S. aureus ([1]; 24 h): 32 µg/mL; LDH Release (OD490 nm) [3]: 1.03 ± 0.05 OD490 nm; OD490 nm (WST-1 cell viability) (HBE cells): 1.75 ± 0.21 OD490 nm"
KWKHALMKAHMLWHMIFHTALKPISS [SEQ ID NO: 52],>,0.207 ng/mL,,2 µg/mL,8 µg/mL,2 µg/mL,8 µg/mL,,"MIC, P. aerug. ([1]; 24 h): 32 µg/mL"
"DLPAKRGSAPGST (Cationic peptide) [SEQ ID NO: 12, Formula B cationic peptide]",>,,52.1 ± 0.38%,,,,,>,Survival (BALB/c mice): 17%
KWKKWAHSPRKVLTRIFHTALKPISS [SEQ ID NO: 50],>,0.141 ng/mL,,16 µg/mL,8 µg/mL,8 µg/mL,16 µg/mL,,"MIC, P. aerug. ([1]; 24 h): 16 µg/mL"
KWKSLVMMFKKPARRIFHTALKPISS [SEQ ID NO: 51],>,0.255 ng/mL,,,,,,4 µg/mL,"MIC, C. rhod. [1, 7]: 4 µg/mL; MIC, EHEC [1, 8]: 8 µg/mL; MIC, P. aerug. [1, 9]: 8 µg/mL; MIC, S. typhim. [1, 10]: 32 µg/mL"
PAM3,,,,,,,,,"IL-1β, Ave pg/ml (human PBMC; 4 hr): 34 pg/mL; IL-6, Ave pg/ml (human PBMC; 4 hr): 435 pg/mL; IL-8, Ave pg/ml (human PBMC; 4 hr): 738 pg/mL; TNF-α, Ave pg/ml (human PBMC; 4 hr): 830 pg/mL; IL-1β, Ave pg/ml (human PBMC; 24 hr): 512 pg/mL; IL-6, Ave pg/ml (human PBMC; 24 hr): 7734 pg/mL; IL-8, Ave pg/ml (human PBMC; 24 hr): 7620 pg/mL; TNF-α, Ave pg/ml (human PBMC; 24 hr): 2334 pg/mL"
